According to US8772251B2, “Use of isothiocyanate derivatives as anti-myeloma agents” (Indena S.p.A., priority 2008, dated 2014):
Like-named read-outs stand apart in the source and are kept apart here.

How the values were obtained:
[1] = tested on: H460 human lung tumor cell line; assay: Sensitivity of H460 cells to glucomoringin with or without myrosinase (cell growth relative to control); assay type: cell-based; conditions: GMG 100 μM, no MYR
[2] = tested on: human myeloma tumor cell lines s.c. transplanted; assay: Antitumor activity in vivo in SCID mice bearing s.c. transplanted human myeloma
Excerpt: In the table 3 is reported the antitumor activity of the GMG-ITC administered in vivo in SCID mice bearing human myeloma tumor cell lines s.c. transplanted.

H460 wt = assay: Cytotoxic activity, cell count (24 h); assay type: cell-based; conditions: Homo sapiens, read-out: Cell count (24 h) IC50
Excerpt: (§1) Cytotoxic activity of the Moringa derived isothiocyanate (GMG-ITC) on a panel of human tumor cell lines.

MCF7 NEO = assay: Cytotoxic activity, cell count (24 h); assay type: cell-based; conditions: Homo sapiens, read-out: Cell count (24 h) IC50
Excerpt: as §1

H460 S5 = assay: Cytotoxic activity, cell count (24 h); assay type: cell-based; conditions: Homo sapiens, read-out: Cell count (24 h) IC50
Excerpt: as §1

HCT116 p53+/+ = assay: Cytotoxic activity, cell count (24 h); assay type: cell-based; conditions: Homo sapiens, read-out: Cell count (24 h) IC50
Excerpt: as §1

A2780 = assay: Cytotoxic activity, cell count (24 h); assay type: cell-based
Excerpt: as §1

HCT116 p53−/− = assay: Cytotoxic activity, cell count (24 h); assay type: cell-based; conditions: Homo sapiens, read-out: Cell count (24 h) IC50
Excerpt: as §1

HL60 = assay: Cytotoxic activity, cell count (24 h); assay type: cell-based; conditions: Homo sapiens, read-out: Cell count (24 h) IC50
Excerpt: as §1

RPMI-8226 = assay: Cytotoxic activity, cell count (24 h); assay type: cell-based; conditions: Homo sapiens, read-out: Cell count (24 h) IC50
Excerpt: as §1

MCF7 π = assay: Cytotoxic activity, cell count (24 h); assay type: cell-based; conditions: Homo sapiens, read-out: Cell count (24 h) IC50
Excerpt: as §1

[3] = tested on: human ovarian carcinoma A2780; assay: Antitumor activity in vivo against human ovarian carcinoma A2780

SMILES: C[C@@H]1O[C@@H](Oc2ccc(C/C(=N/OS(=O)(=O)O)S[C@@H]3O[C@H](CO)[C@@H](O)[C@H](O)[C@H]3O)cc2)[C@H](O)[C@H](O)[C@H]1O [GMG, glucomoringin]
- % of cells growth relative to control ([1]; 24 h recovery): 100%
- % of cells growth relative to control ([1]; 24 h treatment): 98%
- % of cells growth relative to control ([1]; 48 h recovery): 100%
- % of cells growth relative to control ([1]; time 0): 100%
- TWI % ([2]; p.o. q5dx2, 400 mg/kg/inj.): 62%

SMILES: CC1OC(Oc2ccc(CN=C=S)cc2)C(O)C(O)C1O (centres unmarked) [GMG-ITC]
- IC50 (H460 wt; NCI-H460, 24 h): 29 ± 0.8 µM
- IC50 (MCF7 NEO; MCF7, 24 h): 20 ± 4.4 µM
- IC50 (H460 S5; NCI-H460, 24 h): 18 ± 6.7 µM
- IC50 (HCT116 p53+/+; HCT-116, 24 h): 12 ± 0.3 µM
- IC50 (A2780; Homo sapiens, A2780, 24 h, read-out: Cell count (24 h) IC50): 15 ± 3 µM
- IC50 (HCT116 p53−/−; HCT-116, 24 h): 13 ± 0.25 µM
- IC50 (HL60; HL-60, 24 h): 15 ± 1 µM
- IC50 (RPMI-8226; RPMI-8226, 24 h): 6 ± 1 µM
- IC50 (MCF7 π; MCF7, 24 h): 21 ± 5.7 µM
- antitumor activity [3]: low
- TWI % ([3]; i.p. q5dx2w, 20 mg/kg/inj.): 46%
- TWI % ([2]; i.p. q5dx2w, 20 mg/kg/inj.): 70%

SMILES: C[S+]([O-])CCCCN=C=S (centres unmarked) [GRA, sulphorafane, reference compound]
- IC50 (H460 wt; NCI-H460, H460 wt, 24 h): 29 ± 0.5 µM
- IC50 (MCF7 NEO; MCF7 NEO, 24 h): 26 ± 4 µM
- IC50 (H460 S5; NCI-H460, H460 S5, 24 h): 19 ± 1 µM
- IC50 (HCT116 p53+/+; HCT-116, HCT116 p53+/+, 24 h): 17 ± 2.3 µM
- IC50 (A2780; Homo sapiens, A2780, 24 h; read-out: Cell count (24 h) IC50): 18 ± 1 µM
- IC50 (HCT116 p53−/−; HCT-116, HCT116 p53−/−, 24 h): 18 ± 5.3 µM
- IC50 (HL60; HL-60, HL60, 24 h): 16 ± 1 µM
- IC50 (RPMI-8226; RPMI-8226 (myeloma), 24 h): 8 ± 0.2 µM
- IC50 (MCF7 π; MCF7 π, 24 h): 27 ± 4 µM
